Patent publication EP4678638A1, “NEW E3 UBIQUITIN LIGASE LIGAND, PROTEIN DEGRADATION AGENT AND USE THEREOF” (priority 2023, dated 2024)
Read-outs that look alike come from different tables or passages of the source.

Tests used:
[1] = target: T1, human Cereblon WT GST-tagged protein (Homo sapiens, UniProt Q96SW2); assay: CRBN binding, HTRF (CEREBLON BINDING kit); settings: Table II-1, CRBN binding, HTRF
T1 construct: purchased CISBIO 64BDCRBNPEH
Procedure, shortened: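 After 3 h at room temperature, emission at 665 and 620 nm was measured in a homogeneous time-resolved fluorescence format. Compounds competed with a Thalidomide-Re probe for GST-tagged wild-type human CRBN, which was labelled with a Eu anti-GST antibody.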

LNcap = assay: CCK-8 proliferation, LNcap; type: cell-based; settings: Homo sapiens; Table B10, compounds designed based on the IRAK4 inhibitors; Lncap cells; read-out: Inhibitory activity (IC50, nM) on tumor cell proliferation, Lncap
Experimental: (§1) The tumor cells used herein were cultured in a cell culture medium listed in table A1 at 37°C in an incubator with 5% CO2. Prior to experimentation, all cell lines used were correctly identified by STR profiling, and tested negative for mycoplasma contamination using a mycoplasma detection kit through routine screenings. Table A1. Tumor cells and cell culture medium used in the present disclosure
(§2) IC50 values of the compounds of the present disclosure (including the compounds in Table 1, and compounds of examples) were measured using the Meilun Cell Counting Kit-8 kit from Dalian Meilun Biotech Co., Ltd. Assay details are as follows: tumor cells were seeded in a 96-well plate at a density listed in Table A2. After 24h, 100 µL of the inoculated cells were treated with 0.5µL of the compounds of the present disclosure (including the compounds in Tables 1 and 2, and compounds of examples) at 10 different successively decreasing concentrations (starting at the highest concentration of 10µM; 5-fold serial dilutions). After the cells were treated with the compounds of the present disclosure for a period of time, the cell viability detection reagent was added to the culture medium for cell viability assessment according to the instructions provided with the CCK-8 kit. […] The growth inhibition of the compounds of the present disclosure on cells was plotted by Prism Graphpad software, and the IC50 values of the compounds of the present disclosure were calculated therefrom. […] Seeding protocol and treatment time for tumor cells

CCRF-CEM = assay: CCK-8 proliferation, CCRF-CEM; type: cell-based, Human; settings: Homo sapiens; Table B10, compounds designed based on the IRAK4 inhibitors; CCRF-CEM cells; read-out: Inhibitory activity (IC50, nM) on tumor cell proliferation, CCRF-CEM
Procedure, shortened: (§3)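 Cells seeded, then after 24 h treated with 10 concentrations (top 10 µM, 5-fold serial dilution) for a line-specific time at 37°C, 5% CO2. Viability read by CCK-8; IC50 fitted from growth-inhibition curves.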

SR = assay: CCK-8 proliferation, SR; type: cell-based, Human; settings: Table B10, compounds designed based on the IRAK4 inhibitors, SR cells, read-out: Inhibitory activity (IC50, nM) on tumor cell proliferation, SR
Procedure, shortened: as §3

H1299 = assay: CCK-8 proliferation, H1299; set-up: species or system Human; settings: Table B10, compounds designed based on the IRAK4 inhibitors, H1299 cells, read-out: Inhibitory activity (IC50, nM) on tumor cell proliferation, H1299
Experimental: as §1, §2

MV-4-11 = assay: CCK-8 proliferation, MV-4-11; type: cell-based, Human; settings: Homo sapiens, MV4-11; Table B10, compounds designed based on the IRAK4 inhibitors; MV-4-11 cells; read-out: Inhibitory activity (IC50, nM) on tumor cell proliferation, MV-4-11
Procedure, shortened: as §3

MM.1S = assay: CCK-8 proliferation, MM.1S; type: cell-based; settings: Table B10, compounds designed based on the IRAK4 inhibitors, MM.1S cells, read-out: Inhibitory activity (IC50, nM) on tumor cell proliferation, MM.1S
Procedure, shortened: as §3

Jurkat = assay: CCK-8 proliferation, Jurkat; type: cell-based, Human; settings: Table B10, compounds designed based on the IRAK4 inhibitors, Jurkat cells, read-out: Inhibitory activity (IC50, nM) on tumor cell proliferation, Jurkat
Procedure, shortened: as §3

MGC-803 = assay: CCK-8 proliferation, MGC-803 (heads: MGC80-3, MGC803); type: cell-based, Human; settings: Table B10, compounds designed based on the IRAK4 inhibitors, MGC803 cells, read-out: Inhibitory activity (IC50, nM) on tumor cell proliferation, MGC803
Experimental: as §1, §2

IRAK4 = target: T2, IRAK4 (Homo sapiens, UniProt Q9NWZ3); assay: Western blot degradation of IRAK4 (hPBMC); type: cell-based; settings: Table D1
T2 construct: evaluate the effects of the compounds of the present disclosure on the expression of target proteins in cells; endogenous in cells; host or cells: hPBMC
T2 sequence (Q9NWZ3 1-460): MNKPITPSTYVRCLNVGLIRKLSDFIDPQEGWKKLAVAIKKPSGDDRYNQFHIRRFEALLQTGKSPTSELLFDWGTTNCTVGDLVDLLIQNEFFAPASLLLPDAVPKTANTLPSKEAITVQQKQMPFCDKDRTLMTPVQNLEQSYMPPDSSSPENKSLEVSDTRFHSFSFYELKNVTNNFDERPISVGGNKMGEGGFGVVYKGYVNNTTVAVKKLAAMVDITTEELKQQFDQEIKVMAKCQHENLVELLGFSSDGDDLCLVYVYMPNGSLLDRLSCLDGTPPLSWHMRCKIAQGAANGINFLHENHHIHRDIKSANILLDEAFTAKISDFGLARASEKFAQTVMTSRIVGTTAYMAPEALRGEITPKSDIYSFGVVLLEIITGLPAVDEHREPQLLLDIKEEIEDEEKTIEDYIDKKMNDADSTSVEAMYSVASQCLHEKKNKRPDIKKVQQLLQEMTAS
Procedure, shortened: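 Quantification by ImageJ densitometry of Western blot bands: DC50 is the fitted concentration halving band intensity relative to DMSO. Percent remaining uses internal-control normalization, and degradation rate is its complement.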

T1 sequence (Q96SW2 whole entry): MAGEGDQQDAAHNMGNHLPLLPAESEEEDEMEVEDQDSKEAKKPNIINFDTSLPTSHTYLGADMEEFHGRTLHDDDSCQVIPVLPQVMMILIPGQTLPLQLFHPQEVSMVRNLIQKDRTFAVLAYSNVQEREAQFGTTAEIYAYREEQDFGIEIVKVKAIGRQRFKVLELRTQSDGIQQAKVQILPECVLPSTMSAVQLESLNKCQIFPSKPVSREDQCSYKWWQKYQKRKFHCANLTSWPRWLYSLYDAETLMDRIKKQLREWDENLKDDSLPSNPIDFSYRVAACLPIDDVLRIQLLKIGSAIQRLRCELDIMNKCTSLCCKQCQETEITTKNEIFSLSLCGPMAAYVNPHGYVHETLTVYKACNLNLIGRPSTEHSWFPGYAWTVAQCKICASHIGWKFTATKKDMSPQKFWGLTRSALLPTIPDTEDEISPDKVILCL

| IC50 (H1299) [nM] | IC50 (MM.1S) [nM] | IC50 (Jurkat) [nM] | IC50 (MGC-803) [nM] | SMILES | IC50 [1] [nM] | IC50 (LNcap) [nM] | IC50 (CCRF-CEM) [nM] | IC50 (SR; Homo sapiens) [nM] | IC50 (H1299; Homo sapiens, NCI-H1299) [nM] | IC50 (MV-4-11) [nM] | IC50 (MM.1S; Homo sapiens, MM1.S) [nM] | IC50 (Jurkat; Homo sapiens) [nM] | IC50 (MGC-803; Homo sapiens, MGC-803) [nM] | Degradation of substrate protein IRAK4 (substrate protein remaining %) (IRAK4) | IC50 (SR) [nM] |
| --- | --- | --- | --- | --- | --- | --- | --- | --- | --- | --- | --- | --- | --- | --- | --- |
|  |  |  |  | CC[C@@H]1[C@H](F)C(=O)N[C@@H]1COc1nccc2cc(C(N)=O)c(OC)cc12 [PF06650833, reference compound] | > 10000 | > 10000 | 5000 to 10000 | 1000 to 5000 | 5000 to 10000 | 1000 to 5000 | > 10000 | > 10000 | 5000 to 10000 |  |  |
|  |  |  |  | O=C1CCN(c2ccc(CN3CCC(n4cc(NC(=O)c5coc(-c6ccnc(NCC7CC7)c6)n5)c(C(F)F)n4)CC3)cn2)C(=O)N1 [GT-04959, 2-(2-((cyclopropylmethyl)amino)pyridin-4-yl)-N-(3-(difluoromethyl)-1-(1-((6-(2,4-dioxotetrahydropyrimidin-1(2H)-yl)pyridin-3-yl)methyl)piperidin-4-yl)-1H-pyrazol-4-yl)oxazole-4-carboxamide] |  |  |  |  | 500 to 1000 |  | 500 to 1000 |  |  |  |  |
|  |  |  |  | O=C1CCN(c2ccc(CN3CCN(c4ccc5c(c4)nc(NC(=O)c4cccc(C(F)(F)F)c4)n5[C@H]4CC[C@@H](CO)CC4)CC3)nc2)C(=O)N1 [GT-04986, N-(5-(4-((5-(2,4-dioxotetrahydropyrimidin-1(2H)-yl)pyridin-2-yl)methyl)piperazin-1-yl)-1-((1s,4s)-4-(hydroxymethyl)cyclohexyl) -1H-benzo[d]imidazol-2-yl)-3-(trifluoromethyl)benzamide] |  |  |  | 100 to 500 | 100 to 500 |  | 100 to 500 | 100 to 500 | 100 to 500 | A (A is defined as 0% ≤ substrate protein remaining % ≤ 80%) |  |
|  |  |  |  | O=C1CCC(c2ccc(CN3CCN(c4ccc(-n5cc(NC(=O)c6coc(-c7ccnc(NCC(F)(F)F)c7)n6)c(C(F)F)n5)cc4)CC3)cc2)C(=O)N1 (stereo not shown) [GT-04273, N-(3-(difluoromethyl)-1-(4-(4-(4-(2,6-dioxopiperidin-3-yl)benzyl)piperazin-1-yl)phenyl)-1H-pyrazol-4-yl)-2-(2-((2,2,2-trifluoroethyl)amino)pyridin-4-yl)oxazole-4-carboxamide] |  | 100 to 500 |  | 50 to 100 | 50 to 100 |  | 1 to 10 | 1 to 10 | 10 to 50 |  |  |
|  |  |  |  | O=C1CCN(c2ccc(CN3CCN(c4ccc(-n5cc(NC(=O)c6coc(-c7ccnc(NCC8CC8)c7)n6)c(C(F)F)n5)cc4)CC3)cn2)C(=O)N1 [GT-04970, 2-(2-((cyclopropylmethyl)amino)pyridin-4-yl)-N-(3-(difluoromethyl)-1-(4-(4-((6-(2,4-dioxotetrahydropyrimidin-1(2H)-yl)pyridin-3-yl)methyl)piperazin-1-yl)phenyl)-1H-pyrazol-4-yl)oxazole-4-carboxamide] |  |  |  | 50 to 100 | 100 to 500 |  | 50 to 100 | 100 to 500 | 50 to 100 | A (A is defined as 0% ≤ substrate protein remaining % ≤ 80%) |  |
|  |  |  |  | O=C1CCC(c2ccc(CN3CCN(c4ccc5c(c4)nc(NC(=O)c4cccc(C(F)(F)F)c4)n5C4CCC(CO)CC4)CC3)cc2)C(=O)N1 (stereo not shown) [GT-04981, N-(5-(4-(4-(2,6-dioxopiperidin-3-yl)benzyl)piperazin-1-yl)-1-((1s,4s)-4-(hydroxymethyl)cyclohexyl) -1H-benzo[d]imidazol-2-yl)-3-(trifluoromethyl)benzamide] |  |  |  | 100 to 500 | 500 to 1000 |  | 100 to 500 | 500 to 1000 | 500 to 1000 | A (A is defined as 0% ≤ substrate protein remaining % ≤ 80%) |  |
|  |  |  |  | O=C1CCC(Nc2cccc(CN3CCN(c4ccc(-n5cc(NC(=O)c6coc(-c7ccnc(NCC8CC8)c7)n6)c(C(F)F)n5)cc4)CC3)c2)C(=O)N1 (stereo not shown) [GT-04969, 2-(2-((cyclopropylmethyl)amino)pyridin-4-yl)-N-(3-(difluoromethyl)-1-(4-(4-(3-((2,6-dioxopiperidin-3-yl)amino)benzyl)piperazin-1-yl)phenyl)-1H-pyrazol-4-yl)oxazole-4-carboxamide] |  |  |  | 100 to 500 | 100 to 500 |  | 100 to 500 | 100 to 500 | 100 to 500 | A (A is defined as 0% ≤ substrate protein remaining % ≤ 80%) |  |
|  |  |  |  | O=C1CCN(c2ccc(CN3CCN(c4ccc5c(c4)nc(NC(=O)c4cccc(C(F)(F)F)c4)n5[C@H]4CC[C@@H](CO)CC4)CC3)cc2)C(=O)N1 [GT-04982, N-(5-(4-(4-(2,4-dioxotetrahydropyrimidin-1(2H)-yl)benzyl)piperazin-1-yl)-1-((1s,4s)-4-(hydroxymethyl)cyclohexyl) -1H-benzo[d]imidazol-2-yl)-3-(trifluoromethyl)benzamide] |  |  |  | 100 to 500 | 100 to 500 |  | 50 to 100 | 100 to 500 | 100 to 500 | A (A is defined as 0% ≤ substrate protein remaining % ≤ 80%) |  |
|  |  |  |  | O=C1CCN(c2cccc(CN3CCN(c4ccc(-n5cc(NC(=O)c6coc(-c7ccnc(NCC8CC8)c7)n6)c(C(F)F)n5)cc4)CC3)c2)C(=O)N1 [GT-04968, 2-(2-((cyclopropylmethyl)amino)pyridin-4-yl)-N-(3-(difluoromethyl)-1-(4-(4-(3-(2,4-dioxotetrahydropyrimidin-1(2H)-yl)benzyl)piperazin-1-yl)phenyl)-1H-pyrazol-4-yl)oxazole-4-carboxamide] |  |  |  | 100 to 500 | 100 to 500 |  | 10 to 50 | 100 to 500 | 100 to 500 | A (A is defined as 0% ≤ substrate protein remaining % ≤ 80%) |  |
| 100 to 500 | 100 to 500 | 100 to 500 | 100 to 500 | O=C1CCN(c2ccc(CN3CCN(c4ccc5c(c4)nc(NC(=O)c4cccc(C(F)(F)F)c4)n5[C@H]4CC[C@@H](CO)CC4)CC3)cn2)C(=O)N1 [GT-04987, N-(5-(4-((6-(2,4-dioxotetrahydropyrimidin-1(2H)-yl)pyridin-3-yl)methyl)piperazin-1-yl)-1-((1s,4s)-4-(hydroxymethyl)cyclohexyl) -1H-benzo[d]imidazol-2-yl)-3-(trifluoromethyl)benzamide] |  |  |  |  |  |  |  |  |  |  | 100 to 500 |
